Legend:
Format in all cases: in vivo
[1] = Pharmacokinetics assay in MiaPaca 2 tumor-bearing mice (plasma, tumor tissue, intestine); settings: female, mouse, oral 6 mg/kg
Description: MiaPaca 2 tumor-bearing mice were used as test animals.
Twenty-four female MiaPaca 2 tumor-bearing mice were used. Three mice were used for each time point (0 hour, 1 hour, 2 hours, 4 hours, 6 hours, 8 hours, 16 hours and 24 hours). The mice were purchased from Shanghai Sippr-BK laboratory animal Co. Ltd., with Certificate No.: SCXK (Shanghai) 2018-0006.
The solution was shaked well, and subjected to ultrasound for 15 minutes to obtain a uniform suspension with a concentration of 0.6 mg/mL.
After fast, MiaPaca 2 tumor-bearing mice were administered orally (p.o.) with the test compound according to body weight at an administration dose of 6 mg/kg and an administration volume of 10 mL/kg (the animals were not administered with the test compound on 0 hour).
The mice were euthanized by CO2 before administration and after administration, and 0.5 mL of blood was taken from heart. The blood samples were stored in EDTA-2K tubes, and centrifuged for 6 minutes at 6000 rpm, at 4° C. to separate the blood plasma. The plasma samples were stored at −80° C. The tumor tissue was weighed, placed in a 2 mL centrifuge tube, and stored at −80° C. An appropriate length of duodenum, ileum and colon tissues were taken and cut open with scissors, and the contents were removed. The above tissues were washed with PBS twice, and the moisture was absorbed with absorbent paper. The tissues were weighed, placed in a 2 mL centrifuge tube, and stored at −80° C.

[2] = Pharmacokinetics assay in rats, single intravenous injection; settings: male SD rats
Description: SD rats were used as test animals.
(§1) The solution was subjected to ultrasound to obtain a clear solution. The solution was filtered with a 0.22 μm water filter, and the filtrate was the formulation for intravenous administration (i.v.). The concentration was 0.2 mg/mL.
After an overnight fast, male SD rats (3 rats per group) were administered intravenously with the test compounds at an administration dose of 1 mg/kg and an administration volume of 5 mL/kg.
(§2) 0.2 mL of blood was taken from jugular vein before administration and at 0 minute, 5 minutes, 15 minutes, 0.5 hour, 1.0 hour, 2.0 hours, 4.0 hours, 8.0 hours and 24.0 hours after administration. The blood samples were stored in EDTA-2K tubes, and centrifuged for 6 minutes at 6000 rpm, at 4° C. to separate the blood plasma. The plasma samples were stored at −80° C. The rats were fed four hours after administration.

[3] = Pharmacokinetics assay in mice, single intravenous injection; settings: male Balb/c mice
Description: Balb/c mice were used as test animals.
as §1
After an overnight fast, male Balb/c mice were administered intravenously with the test compounds at an administration dose of 1 mg/kg and an administration volume of 5 mL/kg.
as §2, with “Blood” for “0.2 mL of blood”, “taken” for “taken from jugular vein”, “mice” for “rats”

[4] = printed in the i.v. 1 mg/kg table
[5] = mouse, iv, i.v. 1 mg/kg, plasma

AUC(0-inf) ([1]; Colon): 9180 ng·h/mL
Cmax ([1]; Colon): 1310 ng/mL
MRT ([1]; Colon): 5.8 h
Tmax ([1]; Colon): 4 h
half-life ([1]; Colon): 2.8 h
AUC(0-inf) ([1]; Duodenum): 16300 ng·h/mL
Cmax ([1]; Duodenum): 5420 ng/mL
MRT ([1]; Duodenum): 4.8 h
Tmax ([1]; Duodenum): 1 h
half-life ([1]; Duodenum): 4.8 h
AUC(0-inf) ([1]; Ileum): 10000 ng·h/mL
Cmax ([1]; Ileum): 1930 ng/mL
MRT ([1]; Ileum): 6.1 h
Tmax ([1]; Ileum): 2 h
half-life ([1]; Ileum): 5.3 h
AUC(0-inf) ([1]; Plasma): 2860 ng·h/mL
Cmax ([1]; Plasma): 386 ng/mL
MRT ([1]; Plasma): 7.5 h
Tmax ([1]; Plasma): 1 h
half-life ([1]; Plasma): 4.8 h
AUC(0-inf) ([1]; Tumor): 51800 ng·h/mL
Cmax ([1]; Tumor): 2390 ng/mL
MRT ([1]; Tumor): 19.1 h
Tmax ([1]; Tumor): 8 h
half-life ([1]; Tumor): 11.5 h
F [2, 4]: 118%
AUC(0-inf) ([2]; rat, iv, i.v. 1 mg/kg, plasma): 613 ng·h/mL
C0 ([2]; rat, iv, i.v. 1 mg/kg, plasma): 311 ng/mL
MRT ([2]; rat, iv, i.v. 1 mg/kg, plasma): 4.26 h
clearance ([2]; rat, iv, i.v. 1 mg/kg, plasma): 27.2 mL/min/kg
half-life ([2]; rat, iv, i.v. 1 mg/kg, plasma): 3.35 h
Vd ([2]; rat, iv, i.v. 1 mg/kg, plasma, read-out: Vss): 7 L/kg
F [3, 4]: 71%
AUC(0-inf) [3, 5]: 736 ng·h/mL
C0 [3, 5]: 264 ng/mL
MRT [3, 5]: 9.04 h
clearance [3, 5]: 22.6 mL/min/kg
half-life [3, 5]: 7.74 h
Vd ([3]; mouse, iv, i.v. 1 mg/kg, plasma, read-out: Vss): 12.3 L/kg
Structure (SMILES): Nc1nc(N2CCC3(CC2)Cc2ccccc2[C@H]3N)c(F)nc1Sc1ccnc(N)c1Cl [Example 179, (S)-1′-(6-amino-5-((2-amino-3-chloropyridin-4-yl)thio)-3-fluoropyrazin-2-yl)-1,3-dihydrospiro[indene-2,4′-piperidin]-1-amine]

Reference: patent US20210355105A1, “REGULATOR OF NITROGEN-CONTAINING HETEROAROMATIC DERIVATIVES, PREPARATION METHOD THEREFOR AND USE THEREOF” (Jiangsu Hansoh Pharmaceutical Group Co., Ltd., priority 2018, published 2021)
